Legend:
Rattus norvegicus = assay: Volume of distribution at steady state in po dosed rat; assay type: ADME, organism-based; conditions: in vivo
[1] = Clearance in po dosed rat blood; assay type: ADME, organism-based
[2] = Cmax in Hartley guinea pig at 0.5 to 15 mg/kg, iv; assay type: ADME, organism-based, Cavia porcellus; set-up: dose 0.5-15 mg/kg, route intravenous; conditions: in vivo
[3] = Half life in po dosed rat; assay type: ADME, organism-based; conditions: in vivo
[4] = Oral bioavailability in rat; assay type: ADME, organism-based; conditions: in vivo

Vdss (Rattus norvegicus)	CL/F [1]	Cmax [2]	half-life [3]	bioavailability [4]	Compound
2.5 L/kg	18 mL/min/kg	6240 ng/mL	2.1 h	50%	Cc1ncccc1-c1nnc(SCCCN2C[C@@H]3C[C@]3(c3ccc(C(F)(F)F)cc3)C2)n1C
3.9 L/kg	26 mL/min/kg	8320 ng/mL	2 h	23%	Cc1nc(C)c(-c2nnc(SCCCN3C[C@@H]4C[C@]4(c4ccc(C(F)(F)F)cc4)C3)n2C)s1
3.5 L/kg	14 mL/min/kg		3.2 h	85%	Cc1ncoc1-c1nnc(SCCCN2CC3CC3(c3ccc(C(F)(F)F)cc3)C2)n1C (racemic)

Second part, the compound before the results:

Compound	Vdss (Rattus norvegicus)	CL/F [1]	Cmax [2]	half-life [3]	bioavailability [4]
Cn1c(SCCCN2C[C@@H]3C[C@]3(c3ccc(C(F)(F)F)cc3)C2)nnc1-c1ccnnc1	2.2 L/kg	13 mL/min/kg	9580 ng/mL	2.1 h	46%
Cc1ncoc1-c1nnc(SCCCN2CC3CC3(c3ccc(Cl)cc3)C2)n1C (single isomer, unassigned; 51)	2.6 L/kg	40 mL/min/kg		1.3 h	31%
Cc1ncoc1-c1nnc(SCCCN2CC3CC3(c3ccc(C(F)(F)F)cc3F)C2)n1C (single isomer, unassigned; 74)	4.3 L/kg	18 mL/min/kg	8640 ng/mL	3.7 h	47%
